Measurements: patent publication US8093279B2, “Compound” (priority 2005, dated 2012)

What was measured:
Aromatase = target: T1, Aromatase (Homo sapiens, UniProt P11511); experiment: Aromatase activity in JEG3 choriocarcinoma cells (Protocol 6); type: cell-based; conditions: for IC50: JEG3 cells
T1 construct: host or cells: JEG3 choriocarcinoma cells (intact monolayers)
T1 sequence (P11511 1-503): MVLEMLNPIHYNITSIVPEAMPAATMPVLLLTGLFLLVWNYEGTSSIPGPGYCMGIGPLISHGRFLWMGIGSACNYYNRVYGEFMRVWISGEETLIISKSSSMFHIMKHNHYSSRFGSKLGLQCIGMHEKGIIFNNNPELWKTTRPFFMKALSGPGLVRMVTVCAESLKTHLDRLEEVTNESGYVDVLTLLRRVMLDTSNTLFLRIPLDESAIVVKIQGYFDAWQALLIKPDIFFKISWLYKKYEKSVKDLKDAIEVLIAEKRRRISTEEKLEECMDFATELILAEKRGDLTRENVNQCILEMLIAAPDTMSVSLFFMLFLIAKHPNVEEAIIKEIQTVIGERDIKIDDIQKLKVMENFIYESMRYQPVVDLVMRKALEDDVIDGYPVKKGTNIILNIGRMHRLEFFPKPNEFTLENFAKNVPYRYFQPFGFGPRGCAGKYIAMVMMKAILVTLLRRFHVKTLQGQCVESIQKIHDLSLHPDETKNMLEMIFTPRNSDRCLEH
Method: Aromatase activity is measured in JEG3 choriocarcinoma cells, obtained from the ATCC.
During the aromatase reaction, ^3H2O is liberated which can be quantified using a liquid scintillation spectrometer (Beckman-Coulter, High Wycombe, Bucks. UK). […] The number of cell nuclei per flask is determined using a Coulter Counter after treating the cell monolayers with Z aponin.
Unpaired Student's t test was used to test the statistical significance of results.
A number of compounds were tested for aromatase and steroid sulphatase inhibition in accordance with the above Protocols 1 and 6.

Structure (SMILES)	IC50 (Aromatase)	melting point	JEG3-cells Aromatase, % at single concentration (Aromatase; @ 1 μM)
CN(C)S(=O)(=O)Oc1ccc(-c2cc(Cn3cncn3)ccc2C#N)cc1 [Compound 21, 5′-((1H-1,2,4-triazol-1-yl)methyl)-2′-cyanobiphenyl-4-yl dimethylsulfamate]	< 1 µM		
CN(C)S(=O)(=O)Oc1ccc(-c2cc(Cn3cncn3)ccc2C#N)cc1Cl [Compound 24, 5′-((1H-1,2,4-triazol-1-yl)methyl)-3-chloro-2′-cyanobiphenyl-4-yl dimethylsulfamate]	< 1 µM	119 to 120 °C	
N#Cc1ccc(Cn2cncn2)cc1-c1ccc(Cl)c(O)c1 [Compound 25]	< 1 µM	228 to 229 °C	
N#Cc1ccc(Cn2cncn2)cc1-c1ccc(Cl)c(OS(N)(=O)=O)c1 [Compound 26, 5′-((1H-1,2,4-triazol-1-yl)methyl)-4-chloro-2′-cyanobiphenyl-3-yl sulfamate]	< 1 µM	148 to 150 °C	
N#Cc1ccc(-c2cccc(OS(N)(=O)=O)c2)cc1Cn1cncn1 [Compound 29, 3′-((1H-1,2,4-triazol-1-yl)methyl)-4′-cyanobiphenyl-3-yl sulfamate]		137 to 138 °C	63.4 ± 2.1% @ 1 μM
N#Cc1cc(Cn2cncn2)cc(-c2ccccc2)c1 [Compound 34, 5-((1H-1,2,4-triazol-1-yl)methyl)biphenyl-3-carbonitrile]	< 1 µM	109 to 110 °C	
N#Cc1cc(Cn2cncn2)cc(-c2ccc(F)cc2)c1 [Compound 35, 5-((1H-1,2,4-triazol-1-yl)methyl)-4′-fluorobiphenyl-3-carbonitrile]	< 1 µM	134 to 135 °C	
N#Cc1ccc(-c2cc(C#N)cc(Cn3cncn3)c2)cc1 [Compound 36, 5-((1H-1,2,4-triazol-1-yl)methyl)biphenyl-3,4′-dicarbonitrile]	< 1 µM	154 to 155 °C	
N#Cc1cc(Cn2cncn2)cc(-c2ccc(O)cc2)c1 [Compound 37, 5-((1H-1,2,4-triazol-1-yl)methyl)-4′-hydroxybiphenyl-3-carbonitrile]	< 1 µM	186 to 187 °C	
N#Cc1cc(Cn2cncn2)cc(-c2ccc(OS(N)(=O)=O)cc2)c1 [Compound 38, 3′-((1H-1,2,4-triazol-1-yl)methyl)-5′-cyanobiphenyl-4-yl sulfamate]	< 1 µM	166 to 167 °C	
N#Cc1cc(Cn2cncn2)cc(-c2ccc(O)c(Cl)c2)c1 [Compound 39]	< 1 µM	208 to 209 °C	
N#Cc1cc(Cn2cncn2)ccc1-c1ccccc1 [Compound 46]	< 1 µM		
N#Cc1cc(Cn2cncn2)ccc1-c1ccc(O)cc1 [Compound 47]	< 1 µM	168 to 171 °C	
N#Cc1cc(Cn2cncn2)ccc1-c1ccc(O)c(Cl)c1 [Compound 49, 4-((1H-1,2,4-triazol-1-yl)methyl)-3′-chloro-4′-hydroxybiphenyl-2-carbonitrile]	< 1 µM	195 to 197 °C	
N#Cc1ccc(Cn2cncn2)c(-c2ccccc2)c1 [Compound 51]	< 1 µM		
N#Cc1ccc(Cn2cncn2)c(-c2ccc(O)c(Cl)c2)c1 [Compound 52, 6-((1H-1,2,4-triazol-1-yl)methyl)-3′-chloro-4′-hydroxybiphenyl-3-carbonitrile]	< 1 µM	243 to 245 °C	
N#Cc1ccc(Cn2cncn2)c(-c2ccc(OS(N)(=O)=O)c(Cl)c2)c1 [Compound 53, 2′-((1H-1,2,4-triazol-1-yl)methyl)-3-chloro-5′-cyanobiphenyl-4-yl sulfamate]	< 1 µM	139 to 142 °C	
CC(C)(C#N)c1cc(Cn2cncn2)cc(-c2ccc(OS(N)(=O)=O)cc2)c1 [Compound 56, 3′-((1H-1,2,4-triazol-1-yl)methyl)-5′-(2-cyanopropan-2-yl)biphenyl-4-yl sulfamate]	< 1 µM	74 to 76 °C	
c1ccc(-c2cccc(Cn3cncn3)c2)cc1 [compound 1361]	< 1 µM		
c1ccc(COc2ccc(-c3cccc(Cn4cncn4)c3)cc2)cc1 [compound 1362]	< 10 µM		
Clc1cccc(-c2cccc(Cn3cncn3)c2)c1 [compound 1384]	< 1 µM		
c1cc(Cn2cncn2)cc(-c2ccc3ccccc3c2)c1 [compound 1385]	< 1 µM		
Clc1ccc(-c2cccc(Cn3cncn3)c2)cc1 [compound 1386]	< 1 µM		
Oc1ccc(-c2cccc(Cn3cncn3)c2)cc1 [compound 1387]	< 1 µM		
c1ccc(-c2ccc(-c3cccc(Cn4cncn4)c3)cc2)cc1 [compound 1388]	< 10 µM		
COc1ccc(-c2cccc(Cn3cncn3)c2)cc1 [compound 1452]	< 1 µM		
N#Cc1ccc(-c2ccccc2)cc1Cn1cncn1 [compound 1456]	< 1 µM		
N#Cc1ccc(-c2ccc(OCc3ccccc3)cc2)cc1Cn1cncn1 [compound 1457]	< 10 µM		
N#Cc1cccc(-c2cccc(Cn3cncn3)c2)c1 [compound 1458]	< 1 µM		
